Experimental data as given in patent US10582715B2, “Powder flavour composition” (Givaudan S.A., priority 2012, dated 2020).

Key:
[1] = Tasting of snack product (fried potato base, 35% fat, cheese seasoning) with added compound
Description: A snack product consisting of a fried potato base, containing 35% fat and flavored with cheese seasoning containing salt, MSG, dairy, organic acids, sugars, and a flavour formulation.

[2] = Tasting of air expanded base (3% fat, cheese seasoning) with added compound
Description: An air expanded base (Rice, wheat, Tapioca, potato, salt, sugar, modified starch), containing 3% fat and flavored with cheese seasoning containing salt, MSG, dairy, organic acids, sugars and flavor.

[3] = Test in 3 in 1 Coffee beverage, evaluated by expert tasters; settings: sucrose 13.2%, creamer 2.1% fat, compound at 1 ppm, base: coffee, sweet, mild dairy
Procedure: In a 3 in 1 Coffee beverage from Nestle (market product) sweetened with sucrose 13.2% and containing creamer (2.1% fat) C18:2-gaba was added.
Samples were evaluated by expert tasters. Tasters were asked to describe the samples focusing on authentic taste, mouthfeel, fullness, salivation, sweetness, juiciness, richness, long lastingness and fattiness.
Base is 3-in-1 Coffee Beverage (Market Product) Sweetened with Sucrose and Containing Creamer with Fat
Base: coffee, sweet, mild dairy

[4] = Test on orange flavoured Tang powdered soft drink, evaluated by expert tasters
Procedure: In an orange flavoured Tang powdered soft drink (market product) sweetened with sucrose plus high intensity sweetener and containing citric acid, C18:2-gaba and C18:2-pro were tested.
All samples were evaluated by expert tasters. Tasters were asked to describe the samples focusing on authentic taste, mouthfeel & body, enhancement, richness, juiciness, long lastingness, salivation, sweetness, masking off notes of high intensity sweetener
Base is Orange Flavoured Tang
Base: sweet, orange, licorice, and lingering high intensity sweetener offnotes, bitter, thin

[5] = Mango flavoured still beverage containing different levels of juice, evaluated by expert tasters
Procedure: In a Mango flavoured still beverage, sweetened with 8% sucrose and containing 0.1% citric acid and 1%, 4% and 6% clear mango juice flavoured with a proprietary Mango flavour @ 0.05% , C18:2-gaba and C18:2-Pro were added, as such (separate) and in combination.
All samples were evaluated by expert tasters. Tasters were asked to describe the samples focusing on authentic taste, juicy mouthfeel, enhancement, richness, juiciness, long lastingness, salivation, sweetness.
In a Mango flavoured still beverage, sweetened with 8% sucrose & containing 0.1% citric acid and 1% clear mango juice flavoured with proprietary Mango flavour @ 0.05%, C18:2-gaba and C18:2-Pro were added, as such (separate) and in combination.
Base is water, 8% sucrose, 0.1% citric acid, 1% clear mango juice (very low juice %), flavoured with Mango flavor, dosed at 0.05%
Base: sweet, fruity, mango, thin
In a Mango flavoured still beverage, sweetened with 8% sucrose & containing 0.1% citric acid and 4% clear mango juice flavoured with Mango flavour @ 0.05% , C18:2-gaba and C18:2-Pro were added, as such (separate) and in combination.
Base is water, 8% sucrose, 0.1% citric acid, 4% clear mango juice (30% reduced juice), flavoured with Mango flavor, dosed at 0.05%
Base: sweet, fruity, mango, some low mouthfeel
In a Mango-flavoured still beverage, sweetened with 8% sucrose & containing 0.1% citric acid and 6% clear mango juice flavoured with Mango flavour @ 0.05%, C18:2-gaba and C18:2-Pro were added, as such (separate) and in combination.
Base is water, 8% sucrose, 0.1% citric acid, 6% clear mango juice (full juice), flavoured with Mango flavor, dosed at 0.05%.
Base: Sweet, fruity mango, full mouthfeel

For CCCCC/C=C\C/C=C\CCCCCCCC(=O)NCCCC(=O)O [C18:2-gaba], the tasting results ([1]; compound at 0.5 ppm) was “increased dairy, cheesy”, the tasting results ([1]; compound at 1 ppm) was “Fatty full, cheesy, cheese crust, long lasting” and the tasting results ([2]; compound at 0.5 ppm) was “Increased dairy, cheese”. For the same compound, the tasting results ([2]; compound at 1 ppm) was “Fatty full, cheesy, cheese crust, long lasting, cover base”, the “taste description by expert tasters” value [3] was “very nice mouthfeel effect, creamy as if coffee creamer is added, more sweet” and the “masking off notes of high intensity sweetener” value ([4]; compound at 0.5 ppm) was “the off-notes of the high intensity sweetener were suppressed”. The “taste description by expert tasters” value ([4]; compound at 0.5 ppm) was “enhances sweet juicy orange notes, enhanced mouthfeel”, the “taste description by expert tasters” value ([5]; 1% clear mango juice, compound at 1 ppm) was “fatty skin-like, very juicy, authentic mango, much more mouthfeel, long lasting mango taste, mouthfeel is close to the full juice product” and the “taste description by expert tasters” value ([5]; 4% clear mango juice, compound at 1 ppm) was “fatty skin-like, very juicy, authentic mango, long lasting mango taste, more mouthfeel than the full juice product”. The “taste description by expert tasters” value ([5]; 6% clear mango juice (full juice), compound at 1 ppm) was “fatty skin-like, very thick juicy, authentic mango, long lasting mango taste, rich”.
With CCCCC/C=C\C/C=C\CCCCCCCC(=O)N1CCC[C@H]1C(=O)O [C18:2-Pro] the “masking off notes of high intensity sweetener” value ([4]; compound at 1 ppm) was “the off-notes of the high intensity sweetener were suppressed”, the “taste description by expert tasters” value ([4]; compound at 1 ppm) was “very fresh, enhances sweet juicy orange notes, characteristic of authentic fresh orange fruit” and the “taste description by expert tasters” value ([5]; 1% clear mango juice, compound at 0.5 ppm) was “more sweet, sugar-like, very juicy and long lasting sweet, salivating”. The “taste description by expert tasters” value ([5]; 4% clear mango juice, compound at 0.5 ppm) was “more sweet, sugar-like, very juicy and long lasting sweet, salivating” and the “taste description by expert tasters” value ([5]; 6% clear mango juice (full juice), compound at 0.5 ppm) was “more sweet, sugar-like, very juicy and long lasting sweet, salivating, syrupy”.
In the case of CCCCCCCC/C=C\CCCCCCCC(=O)NC1(C(=O)O)CC1 [C18:1-ACCA, N-oleoyl 1-amino-cyclopropyl carboxylic acid], the tasting results ([1]; compound at 0.5 ppm) is reported as “Increased salty”, the tasting results ([1]; compound at 1 ppm) is reported as “Increased Umami, salty” and the tasting results ([2]; compound at 0.5 ppm) is reported as “Increased salty”. The tasting results ([2]; compound at 1 ppm) was “Increased Umami, salty”.
In the case of CCCCCCCC/C=C\CCCCCCCC(=O)N[C@@H](CCSC)C(=O)O [C18:1 met], the tasting results ([1]; compound at 0.25 ppm) is reported as “Salty, aged cheese, succulent” and the tasting results ([1]; compound at 0.5 ppm) is reported as “Increased cheese, creamy, salty and succulent”.
